Source: PubChem BioAssay (NCI)
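GI50: concentration for 50% inhibition of growth. TGI denotes the concentration required for complete inhibition of growth.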

Experiments:
Assay in all cases: growth of human tumour cells (NCI), 384-well format
CAKI-1 renal = system: CAKI-1 renal
MDA-MB-468 breast = system: MDA-MB-468 breast
OVCAR-5 ovarian = system: OVCAR-5 ovarian
LOX IMVI melanoma = system: LOX IMVI melanoma
SK-OV-3 ovarian = system: SK-OV-3 ovarian
OVCAR-3 ovarian = system: OVCAR-3 ovarian
SF-295 CNS = system: SF-295 CNS
NCI/ADR-RES ovarian = system: NCI/ADR-RES ovarian
IGROV1 ovarian = system: IGROV1 ovarian
M14 melanoma = system: M14 melanoma
SF-539 CNS = system: SF-539 CNS
HL-60(TB) leukemia = system: HL-60(TB) leukemia
NCI-H322M lung = system: NCI-H322M lung
UACC-62 melanoma = system: UACC-62 melanoma
NCI-H460 NSCLC = system: NCI-H460 NSCLC
KM12 colon = system: KM12 colon
SNB-75 CNS = system: SNB-75 CNS
RXF 393 renal = system: RXF 393 renal
K-562 leukemia = system: K-562 leukemia
RPMI-8226 leukemia = system: RPMI-8226 leukemia
MCF7 breast = system: MCF7 breast
SR leukemia = system: SR leukemia
DU-145 prostate = system: DU-145 prostate
ACHN renal = system: ACHN renal
HS 578T breast = system: HS 578T breast
A549 NSCLC = system: A549 NSCLC
HOP-92 NSCLC = system: HOP-92 NSCLC
EKVX NSCLC = system: EKVX NSCLC
OVCAR-4 ovarian = system: OVCAR-4 ovarian
SK-MEL-28 melanoma = system: SK-MEL-28 melanoma

With `C[C@H]1C[C@@H](n2c(Nc3ccc(OC(F)(F)F)cc3)nc3cc(CCC(=O)O)ccc32)CC(C)(C)C1` the GI50 (CAKI-1 renal) was 17.2 µM, the TGI (CAKI-1 renal) was 31 µM and the GI50 (MDA-MB-468 breast) was 13.7 µM. It also gave a TGI (MDA-MB-468 breast) of 28.7 µM, a GI50 (OVCAR-5 ovarian) of 17.2 µM and a TGI (OVCAR-5 ovarian) of 31.1 µM. For the same molecule, the GI50 (LOX IMVI melanoma) was 16.7 µM, the TGI (LOX IMVI melanoma) was 30.5 µM and the GI50 (SK-OV-3 ovarian) was 18.2 µM. For the same molecule, the TGI (SK-OV-3 ovarian) was 32.2 µM, the GI50 (OVCAR-3 ovarian) was 9.71 µM and the TGI (OVCAR-3 ovarian) was 22.5 µM. For the same molecule, the GI50 (SF-295 CNS) was 11.8 µM, the TGI (SF-295 CNS) was 24.2 µM and the GI50 (NCI/ADR-RES ovarian) was 16.1 µM. It also gave a TGI (NCI/ADR-RES ovarian) of 29.8 µM, a GI50 (IGROV1 ovarian) of 12.7 µM and a TGI (IGROV1 ovarian) of 25.4 µM. It also gave a GI50 (M14 melanoma) of 15.4 µM, a TGI (M14 melanoma) of 28.9 µM and a GI50 (SF-539 CNS) of 14.5 µM. It also gave a TGI (SF-539 CNS) of 27.7 µM, a GI50 (HL-60(TB) leukemia) of 8.07 µM and a TGI (HL-60(TB) leukemia) of 17.7 µM. For the same molecule, the GI50 (NCI-H322M lung) was 17 µM, the TGI (NCI-H322M lung) was 30.9 µM and the GI50 (UACC-62 melanoma) was 15.2 µM. For the same molecule, the TGI (UACC-62 melanoma) was 28.6 µM, the GI50 (NCI-H460 NSCLC) was 13.6 µM and the TGI (NCI-H460 NSCLC) was 26.8 µM. The GI50 (KM12 colon) was 13.8 µM, the TGI (KM12 colon) was 26.9 µM and the GI50 (SNB-75 CNS) was 20.3 µM. For the same molecule, the TGI (SNB-75 CNS) was 34.6 µM, the GI50 (RXF 393 renal) was 13 µM and the TGI (RXF 393 renal) was 25.7 µM. The GI50 (K-562 leukemia) was 12.2 µM, the TGI (K-562 leukemia) was 24.9 µM and the GI50 (RPMI-8226 leukemia) was 4.46 µM. For the same molecule, the TGI (RPMI-8226 leukemia) was 11.4 µM, the TGI (MCF7 breast) was 19.2 µM and the GI50 (SR leukemia) was 7 µM. For the same molecule, the TGI (SR leukemia) was 20 µM, the GI50 (DU-145 prostate) was 11.8 µM and the TGI (DU-145 prostate) was 24.2 µM. The GI50 (ACHN renal) was 15.5 µM, the TGI (ACHN renal) was 30.8 µM and the GI50 (HS 578T breast) was 11 µM. The TGI (HS 578T breast) was 23.1 µM, the GI50 (A549 NSCLC) was 7.54 µM and the TGI (A549 NSCLC) was 20.2 µM. It also gave a GI50 (HOP-92 NSCLC) of 16 µM, a TGI (HOP-92 NSCLC) of 29.5 µM and a GI50 (EKVX NSCLC) of 14.6 µM. For the same molecule, the TGI (EKVX NSCLC) was 27.9 µM, the GI50 (OVCAR-4 ovarian) was 13.1 µM and the TGI (OVCAR-4 ovarian) was 25.9 µM. It also gave a GI50 (SK-MEL-28 melanoma) of 14.3 µM and a TGI (SK-MEL-28 melanoma) of 27.5 µM.
